Drawing on patent US9029378B2, “Substituted bicyclic aromatic carboxamide and urea compounds as vanilloid receptor ligands” (Gruenenthal GmbH, priority 2011, dated 2015), this text covers Ki and inhibition for 25 compounds.

As a reminder, the Ki is the dissociation constant of the complex between target and ligand, obtained from inhibition or displacement. As a reminder, the inhibition is the relative decrease from the control value, in per cent.

The target of the assay is T1, vanilloid receptor 1 (VR1/TRPV1 receptor) (Homo sapiens, UniProt Q8NER1).
T1 construct: expressed in transfected cells; host or cells: CHO K1
The assay can be described thus: Functional testing on the vanilloid receptor 1 (FLIPR Ca2+ influx assay, capsaicin). The format is cell-based, human being. The note with it: for Ki: Cap=capsaicin (100 nM), Ki from IC50 by Cheng-Prusoff equation, read-out: (f) Ki (human being) [nM] Cap. As for the experimental part:
Furthermore, preference may be given to compounds according to the invention that cause a 50 percent displacement of capsaicin, which is present at a concentration of 100 nM, in a FLIPR assay with CHO K1 cells which were transfected with the human VR1 gene at a concentration of less than 2,000 nM, preferably less than 1,000 nM, particularly preferably less than 300 nM, most particularly preferably less than 100 nM, even more preferably less than 75 nM, additionally preferably less than 50 nM, most preferably less than 10 nM.
In the process, the Ca^2+ influx is quantified in the FLIPR assay with the aid of a Ca^2+-sensitive dye (type Fluo-4, Molecular Probes Europe BV, Leiden, the Netherlands) in a fluorescent imaging plate reader (FLIPR, Molecular Devices, Sunnyvale, USA), as described hereinafter.
Pharmacological Methods I. Functional Testing Carried Out on the Vanilloid Receptor 1 (VR1/TRPV1 Receptor) […]
The number of cells in the suspension is set to 3×10^5 per mL and 150 μL of this suspension are in each case introduced into a recess in the cell culture plates coated as described hereinbefore. In the incubator the plates are left for two to three days at 37° C., 5% by volume of CO2 and 95% relative humidity. Subsequently, the cells are loaded with 2 μM of Fluo-4 and 0.01% by volume of Pluronic F127 (Molecular Probes Europe BV, Leiden, the Netherlands) in HBSS buffer (Hank's buffered saline solution, Gibco Invitrogen GmbH, Karlsruhe, Germany) for 30 min at 37° C., washed 3 times with HBSS buffer and after further incubation for 15 minutes at room temperature used for Ca^2+ measurement in a FLIPR assay. The Ca^2+-dependent fluorescence is in this case measured before and after the addition of substances (λex=488 nm, λem=540 nm). Quantification is carried out by measuring the highest fluorescence intensity (FC, fluorescence counts) over time.
The FLIPR protocol consists of 2 substance additions. First the compounds to be tested (10 μM) are pipetted onto the cells and the Ca^2+ influx is compared with the control (capsaicin 10 μM). This provides the result in % activation based on the Ca^2+ signal after the addition of 10 μM of capsaicin (CP). After 5 minutes' incubation, 100 nM of capsaicin are applied and the Ca^2+ influx is also determined.
Desensitising agonists and antagonists lead to suppression of the Ca^2+ influx. The % inhibition is calculated compared to the maximum achievable inhibition with 10 μM of capsazepine. Triple analyses (n=3) are carried out and repeated in at least 3 independent experiments (N=4). Starting from the percentage displacement caused by different concentrations of the compounds to be tested of general formula I, IC50 inhibitory concentrations which cause a 50-percent displacement of capsaicin were calculated. Ki values for the test substances were obtained by conversion by means of the Cheng-Prusoff equation (Cheng, Prusoff; Biochem. Pharmacol. 22, 3099-3108, 1973).
The affinity of the compounds of to the invention for the vanilloid receptor 1 (VR1/TRPV1 receptor) was determined as described hereinbefore (pharmacological method I). The compounds of the invention display outstanding affinity to the VR1/TRPV1 receptor (Table 2). In Table 2 the abbreviations below have the following meanings: • Cap=capsaicin • AG=agonist • NE=no effect
The value after the “@” symbol indicates the concentration at which the inhibition (as a percentage) was respectively determined.

T1 sequence (Q8NER1 whole entry): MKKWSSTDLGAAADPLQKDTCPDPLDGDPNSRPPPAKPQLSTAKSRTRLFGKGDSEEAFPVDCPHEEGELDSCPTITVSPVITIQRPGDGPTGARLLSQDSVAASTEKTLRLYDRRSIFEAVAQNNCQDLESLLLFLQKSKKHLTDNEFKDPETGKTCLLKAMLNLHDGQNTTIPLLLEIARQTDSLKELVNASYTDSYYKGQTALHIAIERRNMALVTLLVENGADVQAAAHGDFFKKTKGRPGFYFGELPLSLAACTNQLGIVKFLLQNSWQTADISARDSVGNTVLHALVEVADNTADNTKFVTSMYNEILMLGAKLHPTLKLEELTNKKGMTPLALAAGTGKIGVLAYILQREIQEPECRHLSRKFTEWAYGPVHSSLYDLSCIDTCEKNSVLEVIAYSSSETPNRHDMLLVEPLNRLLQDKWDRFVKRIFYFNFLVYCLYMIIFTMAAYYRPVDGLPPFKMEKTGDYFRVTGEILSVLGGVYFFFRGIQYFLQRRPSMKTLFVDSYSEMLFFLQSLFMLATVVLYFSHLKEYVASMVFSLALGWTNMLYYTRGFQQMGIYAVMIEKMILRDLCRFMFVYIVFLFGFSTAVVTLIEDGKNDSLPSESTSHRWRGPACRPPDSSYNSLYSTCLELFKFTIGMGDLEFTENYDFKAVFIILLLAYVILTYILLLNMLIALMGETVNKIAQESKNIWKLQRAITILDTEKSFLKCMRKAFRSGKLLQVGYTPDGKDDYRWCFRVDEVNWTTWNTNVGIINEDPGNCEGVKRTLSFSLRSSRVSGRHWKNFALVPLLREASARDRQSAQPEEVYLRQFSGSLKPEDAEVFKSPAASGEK

Turning to `CC1CCN(c2nc(C(C)(C)C)ccc2CNC(=O)Nc2cccc3ncccc23)CC1` [Example 64, 1-((6-Tert-butyl-2-(4-methylpiperidin-1-yl)pyridin-3-yl)methyl)-3-(quinolin-5-yl)urea], the Ki came to 1 nM. In the case of `CC(C)Oc1nc(C(F)(F)F)ccc1CNC(=O)Nc1cccc2ncccc12` [Example 65, 1-((2-Isopropoxy-6-(trifluoromethyl)pyridin-3-yl)methyl)-3-(quinolin-5-yl)urea], the Ki stood at 4 nM. In the case of `CC(C)(C)COc1nc(C(F)(F)F)ccc1CNC(=O)Nc1cccc2ncccc12` [Example 66, 1-((2-(Neopentyloxy)-6-(trifluoromethyl)pyridin-3-yl)methyl)-3-(quinolin-5-yl)urea], the Ki stood at 2 nM. As to `CCCCOc1nc(C(F)(F)F)ccc1CNC(=O)Nc1cccc2ncccc12` [Example 67, 1-((2-Butoxy-6-(trifluoromethyl)pyridin-3-yl)methyl)-3-(quinolin-5-yl)urea], the Ki came to 2 nM. Take `O=C(NCc1ccc(C(F)(F)F)nc1OC1CCC1)Nc1cccc2ncccc12` [Example 68, 1-((2-Cyclobutoxy-6-(trifluoromethyl)pyridin-3-yl)methyl)-3-(quinolin-5-yl)urea]: the Ki was 2 nM. As for `CC1CCN(c2nc(C(F)(F)F)ccc2CNC(=O)Nc2ccc3ncccc3c2)CC1` [Example 69, 1-((2-(4-Methylpiperidin-1-yl)-6-(trifluoromethyl)pyridin-3-yl)methyl)-3-(quinolin-6-yl)urea], the inhibition at 1 µM (@1 μM, Cap=capsaicin, read-out: inhibition (as a percentage), (f) (human being) Cap) was found to be 40%. As for `Cc1ccc2cc(NC(=O)NCc3ccc(C(F)(F)F)nc3N3CCC(C)CC3)ccc2n1` [Example 70, 1-((2-(4-Methylpiperidin-1-yl)-6-(trifluoromethyl)pyridin-3-yl)methyl)-3-(2-methylquinolin-6-yl)urea], the Ki turned out to be 68 nM. On to `O=C(NCc1ccc(C(F)(F)F)nc1SC1CCCCC1)Nc1ccc2cccnc2c1` [Example 71, 1-((2-(Cyclohexylthio)-6-(trifluoromethyl)pyridin-3-yl)methyl)-3-(quinolin-7-yl)urea], for which the Ki came out at 5 nM. Still for that read-out and setting: the same measure for `Cc1ccc2cccc(NC(=O)NCc3ccc(C(F)(F)F)nc3N3CCC(C)CC3)c2n1` [Example 73, 1-((2-(4-Methylpiperidin-1-yl)-6-(trifluoromethyl)pyridin-3-yl)methyl)-3-(2-methylquinolin-8-yl)urea]: 24 nM. As to `Cc1ccc2cccc(NC(=O)NCc3ccc(C(C)(C)C)cc3N3CCC(C)CC3)c2n1` [Example 74, 1-(4-Tert-butyl-2-(4-methylpiperidin-1-yl)benzyl)-3-(2-methylquinolin-8-yl)urea], the inhibition at 5 µM (@5 μM, Cap=capsaicin, read-out: inhibition (as a percentage), (f) (human being) Cap) was found to be 24%. Turning to `CC1CCN(c2nc(C(C)(C)C)ccc2CNC(=O)Nc2cccc3cnccc23)CC1` [Example 76, 1-((6-Tert-butyl-2-(4-methylpiperidin-1-yl)pyridin-3-yl)methyl)-3-(isoquinolin-5-yl)urea], the inhibition constant Ki turned out to be 0.1 nM.

In the case of `CN(C)C1(c2ccccc2)CCN(c2nc(C(F)(F)F)ccc2CNC(=O)Nc2cccc3cnccc23)CC1` [Example 77, 1-((2-(4-(Dimethylamino)-4-phenylpiperidin-1-yl)-6-(trifluoromethyl)pyridin-3-yl)methyl)-3-(isoquinolin-5-yl)urea], the inhibition constant Ki was found to be 4 nM.

On to `Cc1nccc2c(NC(=O)NCc3ccc(C(F)(F)F)nc3N3CCC(C)CC3)cccc12` [Example 78, 1-(1-Methylisoquinolin-5-yl)-3-((2-(4-methylpiperidin-1-yl)-6-(trifluoromethyl)pyridin-3-yl)methyl)urea], for which the Ki is 1 nM.

As to `CC1CCN(c2nc(C(F)(F)F)ccc2CNC(=O)Nc2cccc3c(Cl)nccc23)CC1` [Example 79, 1-(1-Chloroisoquinolin-5-yl)-3-((2-(4-methylpiperidin-1-yl)-6-(trifluoromethyl)pyridin-3-yl)methyl)urea], the inhibition constant Ki worked out at 0.8 nM. With `COc1nccc2c(NC(=O)NCc3ccc(C(F)(F)F)nc3N3CCC(C)CC3)cccc12` [Example 80, 1-(1-Methoxyisoquinolin-5-yl)-3-((2-(4-methylpiperidin-1-yl)-6-(trifluoromethyl)pyridin-3-yl)methyl)urea], the Ki came out at 8 nM.

Consider `COc1nc(Cl)cc2c(NC(=O)NCc3ccc(C(F)(F)F)nc3N3CCC(C)CC3)cccc12` [Example 82, 1-(3-Chloro-1-methoxyisoquinolin-5-yl)-3-((2-(4-methylpiperidin-1-yl)-6-(trifluoromethyl)pyridin-3-yl)methyl)urea], for which the Ki came out at 1 nM. Take `CC1CCN(c2nc(C(F)(F)F)ccc2CNC(=O)Nc2ccc3cnccc3c2)CC1` [Example 83, 1-(Isoquinolin-6-yl)-3-((2-(4-methylpiperidin-1-yl)-6-(trifluoromethyl)pyridin-3-yl)methyl)urea]: the inhibition constant Ki came out at 7 nM. As to `CC1CCN(c2nc(C(F)(F)F)ccc2CNC(=O)Nc2ccc3ccncc3c2)CC1` [Example 84, 1-(Isoquinolin-7-yl)-3-((2-(4-methylpiperidin-1-yl)-6-(trifluoromethyl)pyridin-3-yl)methyl)urea], the Ki is 8 nM.

As for `O=C(NCc1ccc(C(F)(F)F)nc1SC1CCCCC1)Nc1cccc2ccncc12` [Example 85, 1-((2-(Cyclohexylthio)-6-(trifluoromethyl)pyridin-3-yl)methyl)-3-(isoquinolin-8-yl)urea], the Ki is 1 nM. With `Cc1nccc2cccc(NC(=O)NCc3ccc(C(F)(F)F)nc3N3CCC(C)CC3)c12` [Example 86, 1-(1-Methylisoquinolin-8-yl)-3-((2-(4-methylpiperidin-1-yl)-6-(trifluoromethyl)pyridin-3-yl)methyl)urea], the Ki is 52 nM.

As for `Cc1cc2cccc(NC(=O)NCc3ccc(C(F)(F)F)nc3N3CCC(C)CC3)c2cn1` [Example 87, 1-(3-Methylisoquinolin-8-yl)-3-((2-(4-methylpiperidin-1-yl)-6-(trifluoromethyl)pyridin-3-yl)methyl)urea], the inhibitory constant (Ki) came to 15 nM.

With `COc1ccc(NC(=O)NCc2ccc(C(F)(F)F)nc2N2CCC(C)CC2)c2cnccc12` [Example 88, 1-(5-Methoxyisoquinolin-8-yl)-3-((2-(4-methylpiperidin-1-yl)-6-(trifluoromethyl)pyridin-3-yl)methyl)urea], the Ki turned out to be 62 nM. As for `CC1CCN(c2nc(C(F)(F)F)ccc2CNC(=O)Nc2cccc3c(O)ncnc23)CC1` [Example 89, 1-(4-Hydroxyquinazolin-8-yl)-3-((2-(4-methylpiperidin-1-yl)-6-(trifluoromethyl)pyridin-3-yl)methyl)urea], the Ki came to 17 nM. With `CC1CCN(c2nc(C(F)(F)F)ccc2CNC(=O)Nc2ccc3cncnc3c2)CC1` [Example 91, 1-((2-(4-Methylpiperidin-1-yl)-6-(trifluoromethyl)pyridin-3-yl)methyl)-3-(quinazolin-7-yl)urea], the Ki is 8 nM.

Regarding “N-(2-(4-Methylpiperidin-1-yl)-4-(trifluoromethyl)benzyl)-2-(quinolin-3-yl)propanamide [Example 16]”, the inhibition constant Ki is 10 nM.
